Earlier results as cited in patent US20100242127A1, “METHODS TO IDENTIFY MODULATORS OF B-RAF PROTEIN KINASE AND THEIR USE FOR THE TREATMENT OF ANXIETY AND DEPRESSION” (HELMHOLTZ ZENTRUM MUNCHEN, priority 2007, published 2010).

Test system: Mek
Conditions: mouse brain

PD184161
behavioural phenotype after acute blockade of Mek: depressive-like phenotype | effect on behavioural actions of antidepressants (acute): counteract the behavioural actions of antidepressants
